Assay results taken from US20240115496A1, “A COMPOUND DRY POWDER INHALANT AND USE THEREOF” (TIANJIN UNIVERSITY OF TRADITIONAL CHINESE MEDICINE, priority 2021, published 2024).

Columns and labels:
[1] = Particle size distribution test, laser particle size analyzer, dry dispersion; type: physicochemical
Description: The particle size distribution of DPI dry powder was measured by dry dispersion method using laser particle size analyzer, and Dv10, Dv50, Dv90, VMD (Volume median diameter) and SMD (Sauter mean diameter) were determined, respectively.

[2] = tested on: inflammatory factors IL-4, IL-6, IL-8, and IL-1β in BALF; assay: Inflammatory factors in BALF by ELISA; type: in vivo, rat; settings: Bleo rats after 28 days, compared with Bleo group
Description: (§1) 48 SPF healthy SD male rats (weight of 180-220 g) were randomly divided into 8 groups, 6 rats for each group: (1) normal group (control group): normal rearing in the animal center; (2) sham group: this group was given the same dose of air by pulmonary administration; (3) Bleo model group: 100 μL of Bleo solution with a concentration of 12.5 mg/mL was administered through the tracheal intubation, and the rats were rotated for 5 min after drug administration for use, referred to as the Bleo group or the model group in the present application; (4) Bleo+BA-DPI group: the same modeling method as the Bleo model group was used, and BA-DPI was administered through the tracheal intubation via DP-4 rat dry powder lung drug delivery device (manufacturer: Beijing YSKD Biotechnology Co.) at a dose of 9 mg/kg, 3 mg per day for 28 days; (5) Bleo+AH-DPI group (same method as 4); (6) Bleo+BA/AH-DPI group (same method as 4); (7) Bleo+tail intravenous injection group: the formulation solution was administered by tail intravenous injection at a concentration of 3 mg/ml, 9 mg/kg, for a total of 28 days, starting from the second day after the modeling; (8) Bleo+pirfenidone group: 2 ml per day at a concentration of 11.6 mg/ml was administered by gavage starting from the second day after successful modeling for 28 days. […]
In order to verity whether BA/AH-DPI can regulate the inflammatory process by modulating the secretion of cytokines, the application also measured the concentrations of inflammatory factors IL-4, IL-6, IL-8, and IL-1β in BALF to determine the protective and therapeutic effects of BA/AH-DPI in the pathogenesis of Bleo-induced idiopathic pulmonary fibrosis.
The above BALF supernatant was measured by enzyme-linked immunosorbent assay (ELISA) to detect the concentration levels of inflammatory factors IL-4, IL-6, IL-8, IL-1β, as well as IFN-γ and TGF-β1. […]

[3] = tested on: rats having Bleo-induced pulmonary fibrosis; assay: Hydroxyproline (Hyp) in lung tissue homogenates by ELISA; type: in vivo, rat; settings: Bleo rats after 28 days of treatment; Bleo group 118.33, normal 76.43
Description: as §1

[4] = tested on: rats having Bleo-induced pulmonary fibrosis; assay: Body weight changes in rats; type: in vivo, rat; settings: days 1-28, compared with Bleo group
Description: as §1

[5] = tested on: SOD, MDA, LDH in rat lung tissue; assay: Oxidative stress indicators (SOD, MDA, LDH) in lung tissue homogenates; type: in vivo; settings: Bleo rats after 28 days, compared with Bleo group
Description: as §1
Oxidative stress played an important role in the process of Bleo-induced pulmonary fibrosis. […] Therefore, in the application, SOD was measured in conjunction with MDA in order to observe the role in pulmonary fibrosis. […]

[6] = tested on: MPO; assay: Myeloperoxidase (MPO) level in serum; type: in vivo, rat; settings: Bleo rats after 28 days, compared with Bleo group
Description: as §1

[7] = tested on: rats having Bleo-induced pulmonary fibrosis; assay: Determination of lung factor in rats; type: in vivo, rat; settings: Bleo rats after 28 days of treatment, n = 6; Bleo group 9.45, normal 4.09
Description: as §1

[8] = tested on: rats having Bleo-induced pulmonary fibrosis; assay: Pulmonary function index assay (EMKA pulmonary function detector); type: in vivo, rat; settings: day 28, DPI intratracheal or tail i.v. 9 mg/kg, pirfenidone gavage, daily 28 days
Description: 48 SPF healthy SD male rats (weight of 180-220 g) were randomly divided into 8 groups, 6 rats for each group: (1) normal group (control group): normal rearing in the animal center; (2) sham group: this group was given the same dose of air by pulmonary administration; (3) Bleo model group: 100 μL of Bleo solution with a concentration of 12.5 mg/mL was administered through the tracheal intubation, and the rats were rotated for 5 min after drug administration for use, referred to as the Bleo group or the model group in the present application; (4) Bleo+BA-DPI group: the same modeling method as the Bleo model group was used, and BA-DPI was administered through the tracheal intubation via DP-4 rat dry powder lung drug delivery device (manufacturer: Beijing YSKD Biotechnology Co.) at a dose of 9 mg/kg, 3 mg per day for 28 days; (5) Bleo+AH-DPI group (same method as 4); (6) Bleo+BA/AH-DPI group (same method as 4); (7) Bleo+tail intravenous injection group: the formulation solution was administered by tail intravenous injection at a concentration of 3 mg/ml, 9 mg/kg, for a total of 28 days, starting from the second day after the modeling; (8) Bleo+pirfenidone group: 2 ml per day at a concentration of 11.6 mg/ml was administered by gavage starting from the second day after successful modeling for 28 days.
Lung DPI dry powder administration operation: DPI powder was weighed precisely and placed in the storage room of the drug delivery device, the DP4 dry powder delivery device was installed, connected to the syringe with 1.5-2 ml of air, the rat was laid on the tracheal intubation platform after anesthesia, the rat laryngoscope was used to expose the tracheal opening, when the tracheal opening was open, the nozzle of the drug delivery device was immediately inserted through the tracheal opening to the bronchial fork, and the air was immediately pushed into the drug delivery device to push DPI fine powder into the rat's lung. The rat in sham group was pushed with 1.5-2 ml of air (not including the drug) as described above.
Various respiratory indices, including inspiratory duration (Ti), expiratory duration (Te), maximal inspiratory flow (PIF), maximal expiratory flow (PEF), tidal volume (TV), relaxation time (RT), and expiratory volume (EV), in freely moving rats were measured by EMKA pulmonary function detector at the completion of modeling on day 28.

[9] = tested on: rats having Bleo-induced pulmonary fibrosis; assay: Total protein in bronchoalveolar lavage fluid (BALF), colorimetric; type: in vivo, rat; settings: Bleo rats after 28 days of treatment, n = 6; Bleo group 17.04, normal 7.86
Description: as §1

[10] = tested on: rats having Bleo-induced pulmonary fibrosis; assay: HE staining of rat lung tissue; type: in vivo; settings: Bleo rats after 28 days, compared with Bleo model group
Description: as §1

CC(C)C[C@H](N)C(=O)O [L-leu, L-leucine]
D10 [1]: 9.39 μm | D50 [1]: 50.97 μm | D90 [1]: 84.70 μm | SMD (Sauter mean diameter) [1]: 16.64 μm | VMD (Volume median diameter) [1]: 49.54 μm | <3 μm ([1]; fraction of particles): 3.80% | <5 μm ([1]; fraction of particles): 6.08%

Cc1ccc(=O)n(-c2ccccc2)c1 [pirfenidone, Pirfenidone]
IL-1β level in BALF [2]: significantly lower | IL-4 level in BALF [2]: significantly lower | IL-8 level in BALF [2]: significantly lower | Hyp content in lung tissue [3]: 83.40 pg/mL | Body weight of rats [4]: significantly different from that in the Bleo group from day 14 | LDH content in lung tissue [5]: significantly decreased | MDA level in lung tissue [5]: significantly decreased | SOD antioxidant index in lung tissue [5]: significantly increased | MPO activity in serum [6]: significantly inhibited MPO activity | Lung factor [7]: 6.15 ± 0.84 | EV (expiratory volume) [8]: 1.23 ± 0.30 mL | PEF (maximal expiratory flow) [8]: 10.76 ± 5.93 mL/s | PIF (maximal inspiratory flow) [8]: 12.52 ± 4.68 mL/s | RT (relaxation time) [8]: 158.82 ± 63.19 ms | TV (tidal volume) [8]: 1.22 ± 0.30 mL | Te (expiratory duration) [8]: 265.48 ± 99.45 ms | Ti (inspiratory duration) [8]: 180.56 ± 49.34 ms | Total protein concentration in BALF [9]: 10.59 ± 1.47 mg/mL | Histopathology of lung tissue (HE staining) [10]: less fibrotic features and inflammatory infiltration
